# Results reported in PubChem BioAssay (NCI).
#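 96-well plates; 48 h exposure; 5 concentrations. Endpoints by linear interpolation between flanking doses. Not reached: highest tested concentration assigned. TGI denotes the concentration required for complete inhibition of growth.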
# Columns and labels:
# Assay in all cases: DTP human tumour cell line panel, 48 h
# [1] = tested on: OVCAR-3 ovarian
# [2] = tested on: NCI-H23 lung
# [3] = tested on: KM20L2 colon
# [4] = tested on: SNB-78 CNS
# [5] = tested on: OVCAR-4 ovarian
# [6] = tested on: HOP-18 NSCLC
# [7] = tested on: OVCAR-8 ovarian
# [8] = tested on: RPMI-8226 leukemia
# [9] = tested on: RXF 393 renal
# [10] = tested on: UACC-62 melanoma
# [11] = tested on: DLD-1 colon
# [12] = tested on: IGROV1 ovarian
# [13] = tested on: SW-620 colon
# [14] = tested on: SF-539 CNS
# [15] = tested on: K-562 leukemia
# [16] = tested on: CCRF-CEM leukemia
# [17] = tested on: SNB-19 CNS
# [18] = tested on: NCI-H460 lung
# [19] = tested on: MOLT-4 leukemia
# [20] = tested on: MALME-3M melanoma
# [21] = tested on: SNB-75 CNS
# [22] = tested on: XF 498 CNS
# [23] = tested on: UACC-257 melanoma
# [24] = tested on: UO-31 renal
# [25] = tested on: CAKI-1 renal
# [26] = tested on: U251 CNS
# [27] = tested on: HOP-62 NSCLC
# [28] = tested on: SR leukemia
# [29] = tested on: SN12C renal
# [30] = tested on: OVCAR-5 ovarian
# [31] = tested on: HCC-2998 colon
# [32] = tested on: KM12 colon
# [33] = tested on: ACHN renal
# [34] = tested on: HOP-92 NSCLC
# [35] = tested on: SK-MEL-5 melanoma
# [36] = tested on: NCI-H226 lung
# [37] = tested on: SF-295 CNS
# [38] = tested on: A549 NSCLC
# [39] = tested on: LXFL 529 NSCLC
# [40] = tested on: A498 renal
# [41] = tested on: SK-MEL-28 melanoma
# [42] = tested on: 786-0 renal
# [43] = tested on: LOX IMVI melanoma
# [44] = tested on: HL-60(TB) leukemia
# [45] = tested on: HT29 colon
# [46] = tested on: SF-268 CNS
# [47] = tested on: DMS 114 small cell lung
# [48] = tested on: SK-OV-3 ovarian
# [49] = tested on: TK-10 renal
# [50] = tested on: HCT-116 colon
# [51] = tested on: M14 melanoma
# [52] = tested on: COLO 205 colon
# [53] = tested on: HCT-15 colon
# [54] = tested on: EKVX NSCLC
# [55] = tested on: M19-MEL melanoma
# [56] = tested on: NCI-H522 lung
# [57] = tested on: DMS 273 small cell lung
# [58] = tested on: SK-MEL-2 melanoma
smiles,measurement,setting,value
Cn1cnc([N+](=O)[O-])c1Sc1nc2ncccc2[nH]1,TGI,[1],> 100 µM
same,TGI,[2],> 100 µM
same,TGI,[3],> 100 µM
same,TGI,[4],> 100 µM
same,TGI,[5],> 100 µM
same,TGI,[6],> 100 µM
same,TGI,[7],> 100 µM
same,TGI,[8],> 100 µM
same,TGI,[9],> 100 µM
same,TGI,[10],> 100 µM
same,TGI,[11],> 100 µM
same,TGI,[12],> 100 µM
same,TGI,[13],> 100 µM
same,TGI,[14],> 100 µM
same,TGI,[15],> 100 µM
same,TGI,[16],64.2 µM
same,TGI,[17],> 100 µM
same,TGI,[18],> 100 µM
same,TGI,[19],> 100 µM
same,TGI,[20],> 100 µM
same,TGI,[21],> 100 µM
same,TGI,[22],> 100 µM
same,TGI,[23],> 100 µM
same,TGI,[24],> 100 µM
same,TGI,[25],85.6 µM
same,TGI,[26],> 100 µM
same,TGI,[27],> 100 µM
same,TGI,[28],> 100 µM
same,TGI,[29],> 100 µM
same,TGI,[30],> 100 µM
same,TGI,[31],> 100 µM
same,TGI,[32],> 100 µM
same,TGI,[33],> 100 µM
same,TGI,[34],> 100 µM
same,TGI,[35],> 100 µM
same,TGI,[36],> 100 µM
same,TGI,[37],> 100 µM
same,TGI,[38],> 100 µM
same,TGI,[39],> 100 µM
same,TGI,[40],> 100 µM
same,TGI,[41],> 100 µM
same,TGI,[42],> 100 µM
same,TGI,[43],> 100 µM
same,TGI,[44],62.6 µM
same,TGI,[45],> 100 µM
same,TGI,[46],> 100 µM
same,TGI,[47],74.4 µM
same,TGI,[48],> 100 µM
same,TGI,[49],> 100 µM
same,TGI,[50],> 100 µM
same,TGI,[51],> 100 µM
same,TGI,[52],56.5 µM
same,TGI,[53],> 100 µM
same,TGI,[54],> 100 µM
CCSc1nc(-c2ccc(OC)cc2)c(C#N)c(=O)n1C1OCC(OC(C)=O)C(OC(C)=O)C1OC(C)=O (configuration not stated),TGI,[2],> 100 µM
same,TGI,[3],> 100 µM
same,TGI,[4],> 100 µM
same,TGI,[5],> 100 µM
same,TGI,[6],> 100 µM
same,TGI,[8],> 100 µM
same,TGI,[9],> 100 µM
same,TGI,[10],> 100 µM
same,TGI,[11],> 100 µM
same,TGI,[12],> 100 µM
same,TGI,[13],> 100 µM
same,TGI,[14],> 100 µM
same,TGI,[15],> 100 µM
same,TGI,[17],> 100 µM
same,TGI,[55],> 100 µM
same,TGI,[18],> 100 µM
same,TGI,[19],> 100 µM
same,TGI,[20],> 100 µM
same,TGI,[21],> 100 µM
same,TGI,[23],> 100 µM
same,TGI,[24],> 100 µM
same,TGI,[25],> 100 µM
same,TGI,[26],> 100 µM
same,TGI,[27],> 100 µM
same,TGI,[28],> 100 µM
same,TGI,[29],> 100 µM
same,TGI,[30],> 100 µM
same,TGI,[31],> 100 µM
same,TGI,[32],> 100 µM
same,TGI,[33],> 100 µM
same,TGI,[34],> 100 µM
same,TGI,[35],> 100 µM
same,TGI,[36],> 100 µM
same,TGI,[37],> 100 µM
same,TGI,[56],> 100 µM
same,TGI,[38],> 100 µM
same,TGI,[39],> 100 µM
same,TGI,[40],> 100 µM
same,TGI,[41],> 100 µM
same,TGI,[42],> 100 µM
same,TGI,[45],> 100 µM
same,TGI,[46],> 100 µM
same,TGI,[47],> 100 µM
same,TGI,[48],> 100 µM
same,TGI,[49],> 100 µM
same,TGI,[50],> 100 µM
same,TGI,[57],> 100 µM
same,TGI,[58],> 100 µM
same,TGI,[51],> 100 µM
same,TGI,[52],> 100 µM
same,TGI,[53],> 100 µM
same,TGI,[54],> 100 µM
O=C1C2=C(CCCC2)Nc2cccc3ncn1c23,TGI,[1],> 100 µM
same,TGI,[2],> 100 µM
same,TGI,[3],> 100 µM
same,TGI,[4],> 100 µM
same,TGI,[6],> 100 µM
same,TGI,[7],> 100 µM
same,TGI,[8],> 100 µM
same,TGI,[9],> 100 µM
same,TGI,[10],> 100 µM
same,TGI,[11],> 100 µM
same,TGI,[13],> 100 µM
same,TGI,[14],> 100 µM
same,TGI,[15],> 100 µM
same,TGI,[16],> 100 µM
same,TGI,[17],> 100 µM
same,TGI,[55],> 100 µM
same,TGI,[18],> 100 µM
same,TGI,[19],> 100 µM
same,TGI,[20],> 100 µM
same,TGI,[23],> 100 µM
same,TGI,[24],> 100 µM
same,TGI,[26],> 100 µM
same,TGI,[27],> 100 µM
same,TGI,[28],> 100 µM
same,TGI,[29],> 100 µM
same,TGI,[30],> 100 µM
same,TGI,[31],> 100 µM
same,TGI,[32],> 100 µM
same,TGI,[33],> 100 µM
same,TGI,[34],> 100 µM
same,TGI,[35],> 100 µM
same,TGI,[37],> 100 µM
same,TGI,[56],> 100 µM
same,TGI,[38],> 100 µM
same,TGI,[39],> 100 µM
same,TGI,[40],> 100 µM
same,TGI,[41],> 100 µM
same,TGI,[42],> 100 µM
same,TGI,[43],> 100 µM
same,TGI,[44],> 100 µM
same,TGI,[46],> 100 µM
same,TGI,[47],> 100 µM
same,TGI,[48],> 100 µM
same,TGI,[49],> 100 µM
same,TGI,[50],> 100 µM
same,TGI,[57],> 100 µM
same,TGI,[58],> 100 µM
same,TGI,[51],> 100 µM
same,TGI,[52],> 100 µM
same,TGI,[53],> 100 µM
same,TGI,[54],> 100 µM
Cc1cc([N+](=O)[O-])c(C)c2c1[nH]c1ccc(O)cc12,TGI,[1],> 100 µM
same,TGI,[2],> 100 µM
same,TGI,[4],> 100 µM
same,TGI,[5],> 100 µM
same,TGI,[6],> 100 µM
same,TGI,[7],> 100 µM
same,TGI,[8],79 µM
same,TGI,[11],43.7 µM
same,TGI,[13],> 100 µM
same,TGI,[14],> 100 µM
same,TGI,[15],> 100 µM
same,TGI,[16],> 100 µM
same,TGI,[17],> 100 µM
same,TGI,[55],> 100 µM
same,TGI,[18],> 100 µM
same,TGI,[19],> 100 µM
same,TGI,[20],> 100 µM
same,TGI,[21],> 100 µM
same,TGI,[22],> 100 µM
same,TGI,[23],> 100 µM
same,TGI,[24],> 100 µM
same,TGI,[25],> 100 µM
same,TGI,[27],> 100 µM
same,TGI,[28],> 100 µM
same,TGI,[29],> 100 µM
same,TGI,[30],> 100 µM
same,TGI,[31],> 100 µM
same,TGI,[32],> 100 µM
same,TGI,[33],> 100 µM
same,TGI,[35],> 100 µM
same,TGI,[36],> 100 µM
same,TGI,[37],> 100 µM
same,TGI,[38],> 100 µM
same,TGI,[41],> 100 µM
same,TGI,[42],> 100 µM
same,TGI,[43],> 100 µM
same,TGI,[44],63 µM
same,TGI,[45],> 100 µM
same,TGI,[46],> 100 µM
same,TGI,[47],> 100 µM
same,TGI,[49],> 100 µM
same,TGI,[50],> 100 µM
same,TGI,[57],> 100 µM
same,TGI,[58],> 100 µM
same,TGI,[51],> 100 µM
same,TGI,[52],> 100 µM
same,TGI,[53],> 100 µM
same,TGI,[54],> 100 µM
Cc1nc(C(N)=S)sc1C(=O)CC(=O)C(=O)Nc1c(C(C)C)cccc1C(C)C,TGI,[1],42 µM
same,TGI,[2],88.9 µM
same,TGI,[3],> 100 µM
same,TGI,[4],> 100 µM
same,TGI,[5],> 100 µM
same,TGI,[6],> 100 µM
same,TGI,[7],> 100 µM
same,TGI,[8],> 100 µM
same,TGI,[9],> 100 µM
same,TGI,[10],> 100 µM
same,TGI,[11],> 100 µM
same,TGI,[12],> 100 µM
same,TGI,[13],> 100 µM
same,TGI,[14],86.3 µM
same,TGI,[15],> 100 µM
same,TGI,[16],> 100 µM
same,TGI,[17],> 100 µM
same,TGI,[55],> 100 µM
same,TGI,[18],> 100 µM
same,TGI,[19],> 100 µM
same,TGI,[20],> 100 µM
same,TGI,[21],71.7 µM
same,TGI,[22],48.8 µM
same,TGI,[23],> 100 µM
same,TGI,[24],> 100 µM
same,TGI,[25],> 100 µM
same,TGI,[26],> 100 µM
same,TGI,[27],> 100 µM
same,TGI,[28],> 100 µM
same,TGI,[29],> 100 µM
same,TGI,[30],> 100 µM
same,TGI,[31],> 100 µM
same,TGI,[32],> 100 µM
same,TGI,[33],> 100 µM
same,TGI,[34],92.9 µM
same,TGI,[35],> 100 µM
same,TGI,[36],> 100 µM
same,TGI,[37],85.4 µM
same,TGI,[56],46.9 µM
same,TGI,[38],> 100 µM
same,TGI,[39],> 100 µM
same,TGI,[40],> 100 µM
same,TGI,[41],> 100 µM
same,TGI,[42],> 100 µM
same,TGI,[43],> 100 µM
same,TGI,[44],> 100 µM
same,TGI,[45],> 100 µM
same,TGI,[46],> 100 µM
same,TGI,[47],64.6 µM
same,TGI,[48],> 100 µM
same,TGI,[49],> 100 µM
same,TGI,[50],> 100 µM
same,TGI,[58],> 100 µM
same,TGI,[51],> 100 µM
same,TGI,[52],> 100 µM
same,TGI,[53],> 100 µM
same,TGI,[54],> 100 µM
